Experimental data as given in patent publication US11459339B2, “Biaryl derivative, preparation method thereof and pharmaceutical application thereof” (Abbisko Therapeutics Co., Ltd., priority 2018, dated 2022).

What was measured:
[1] = biological target: interaction between PD-1 and PD-L1 (Homo sapiens (Human), UniProt Q9NZQ7); assay: PD1-PDL1 HTRF binding activity test (Cisbio PD-1/PD-L1 binding assay kit); conditions: read-out: PD1-PDL1 HTRF Binding Activity IC50
[2] = biological target: interaction between PD-1 and PD-L1 expressed on cell surfaces (Homo sapiens (Human), UniProt Q9NZQ7); assay: Jurkat reporter gene cellular assay (Jurkat/NF-κB-luc/PD1 cells cocultured with Raji-PD-L1 cells, OKT-3 stimulation); assay type: cell-based; conditions: NF-κB-luc reporter activation fold, 6 hrs; read-out: Cell Activity EC50
Chain of interaction between PD-1 and PD-L1 expressed on cell surfaces (Q9NZQ7 19-290): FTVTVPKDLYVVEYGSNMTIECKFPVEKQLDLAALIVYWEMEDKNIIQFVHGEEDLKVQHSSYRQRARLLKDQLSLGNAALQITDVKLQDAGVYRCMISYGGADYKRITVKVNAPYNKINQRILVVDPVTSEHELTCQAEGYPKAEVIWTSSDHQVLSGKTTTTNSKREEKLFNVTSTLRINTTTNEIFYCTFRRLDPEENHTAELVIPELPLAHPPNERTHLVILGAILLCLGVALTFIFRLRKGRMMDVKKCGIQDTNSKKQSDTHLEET
How it was run: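 EC50 comes from non-linear regression of activation fold (compound reading over DMSO reading) against concentration. Read-out was luciferase signal 6 h after OKT-3-stimulated coculture of PD-1/NF-κB-luc Jurkat cells with PD-L1-expressing Raji cells, 5*10^4 cells each per well.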

Chain of interaction between PD-1 and PD-L1 (Q9NZQ7 19-238): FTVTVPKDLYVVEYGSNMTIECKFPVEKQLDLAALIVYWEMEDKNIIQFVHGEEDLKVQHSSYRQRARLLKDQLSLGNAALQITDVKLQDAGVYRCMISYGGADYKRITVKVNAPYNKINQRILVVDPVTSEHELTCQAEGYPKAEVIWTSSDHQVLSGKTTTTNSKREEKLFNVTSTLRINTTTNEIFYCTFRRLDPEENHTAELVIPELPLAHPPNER

SMILES	IC50 [1] [nM]	EC50 [2] [nM]
COC[C@@H](NCc1cnc(C(=O)Nc2cccc(-c3cccc(NC(=O)c4cc(OC)c(CN[C@H](COC)C(=O)OC)cn4)c3C)c2C)cc1OC)C(=O)OC [Example 76, dimethyl 2,2′-((((((2,2′-dimethyl-[1,1′-biphenyl]-3,3′-diyl)bis(azanediyl))bis(carbonyl))bis (4-methoxypyridine-6,3-diyl))bis(methylene))bis(azanediyl))(2R,2′R)-bis(3-methoxypropanoate)]	7.8	3060
COC[C@@H](NCc1cnc(C(=O)Nc2cccc(-c3cccc(NC(=O)c4cc(OC)c(CN[C@H](COC)C(=O)O)cn4)c3C)c2C)cc1OC)C(=O)O [Example 77, (2R,2′R)-2,2′-((((((2,2′-dimethyl-[1,1′-biphenyl]-3,3′-diyl)bis(azanediyl))bis(carbonyl))bis(4-methoxypyridine-6,3-diyl))bis(methylene))bis (azanediyl))bis(3-methoxypropanoic acid)]	0.41	297
COC[C@H](NCc1cnc(C(=O)Nc2cccc(-c3cccc(NC(=O)c4cc(OC)c(CN[C@@H](COC)C(=O)OC)cn4)c3C)c2C)cc1OC)C(=O)OC [Example 78, dimethyl 2,2′-((((((2,2′-dimethyl-[1,1′-biphenyl]-3,3′-diyl)bis(azanediyl))bis(carbonyl))bis(4-methoxypyridine-6,3-diyl))bis(methylene))bis (azanediyl))(2S,2′S)-bis(3-methoxypropanoate)]	10.9	2910
COC[C@H](NCc1cnc(C(=O)Nc2cccc(-c3cccc(NC(=O)c4cc(OC)c(CN[C@@H](COC)C(=O)O)cn4)c3C)c2C)cc1OC)C(=O)O [Example 79, (2S,2′S)-2,2′-((((((2,2′-dimethyl-[1,1′-biphenyl]-3,3′-diyl)bis(azanediyl))bis(carbonyl))bis(4-methoxypyridine-6,3-diyl))bis(methylene))bis (azanediyl))bis(3-methoxypropanoic acid)]	0.65	171
COc1cc(C(=O)Nc2cccc(-c3cccc(NC(=O)c4cc(OC)c(CNCCS(C)(=O)=O)cn4)c3C)c2C)ncc1CNCCS(C)(=O)=O [Example 80, N,N'-(2,2′-dimethyl-[1,1′-biphenyl]-3,3′-diyl)bis(4-methoxy-5-(((2-(methylsulfonyl)ethyl)amino)methyl)picolinamide)]	0.082	3740
COc1cc(C(=O)Nc2cccc(-c3cccc(NC(=O)c4cc(OC)c(CNCC[S+](C)[O-])cn4)c3C)c2C)ncc1CNCC[S+](C)[O-] (stereo not drawn) [Example 81, N,N'-(2,2′-dimethyl-[1,1′-biphenyl]-3,3′-diyl)bis(4-methoxy-5-(((2-(methylsulfinyl)ethyl)amino)methyl)picolinamide)]	0.43	900
COC(=O)[C@H]1CCN(Cc2cnc(C(=O)Nc3cccc(-c4cccc(NC(=O)c5cc(OC)c(CN6CC[C@H](C(=O)OC)C6)cn5)c4C)c3C)cc2OC)C1 [Example 82, dimethyl 1,1′-(((((2,2′-dimethyl-[1,1-biphenyl]-3,3′-diyl)bis(azanediyl))bis(carbonyl))bis(4-methoxypyridine-6,3-diyl))bis(methylene))(3S,3′S)-bis(pyrrolidine-3-carboxylate)]	1.9	566
COc1cc(C(=O)Nc2cccc(-c3cccc(NC(=O)c4cc(OC)c(CN5CC[C@H](C(=O)O)C5)cn4)c3C)c2C)ncc1CN1CC[C@H](C(=O)O)C1 [Example 83, (3S,3′S)-1,1′-(((((2,2′-dimethyl-[1,1′-biphenyl]-3,3′-diyl)bis(azanediyl))bis(carbonyl))bis(4-methoxypyridine-6,3-diyl))bis(methylene))bis (pyrroidine-3-carboxylic acid)]	1.04	309
COC(=O)C1CCN(Cc2cnc(C(=O)Nc3cccc(-c4cccc(NC(=O)c5cc(OC)c(CN6CCC(C(=O)OC)CC6)cn5)c4C)c3C)cc2OC)CC1 [Example 84, dimethyl 1,1′-(((((2,2′-dimethyl-[1,1′-biphenyl]-3,3′-diyl)bis(azanediyl))bis(carbonyl))bis(4-methoxypyridine-6,3-diyl))bis(methylene))bis(piperidine-4-carboxylate)]	1.36	603
COc1cc(C(=O)Nc2cccc(-c3cccc(NC(=O)c4cc(OC)c(CN5CCC(C(=O)O)CC5)cn4)c3C)c2C)ncc1CN1CCC(C(=O)O)CC1 [Example 85, 1,1′-(((((2,2′-dimethyl-[1,1′-biphenyl]-3,3′-diyl)bis(azanediyl))bis(carbonyl))bis (4-methoxypyridine-6,3-diyl))bis(methylene))bis (piperidine-4-carboxylic acid)]	0.45	341
COc1cc(C(=O)Nc2cccc(-c3cccc(NC(=O)c4cc(OC)c(CN[C@H](CO)C(N)=O)cn4)c3C)c2C)ncc1CN[C@H](CO)C(N)=O [Example 86, N,N′-(2,2′-dimethyl-[1,1′-biphenyl]-3,3′-diyl)bis(5-((((R)-1-amino-3-hydroxy-1-oxopropan-2-yl)amino)methyl)-4-methoxypicolinamide)]	1.34	406
CCNC(=O)[C@@H](CO)NCc1cnc(C(=O)Nc2cccc(-c3cccc(NC(=O)c4cc(OC)c(CN[C@H](CO)C(=O)NCC)cn4)c3C)c2C)cc1OC [Example 87]	1.08	800
COc1cc(C(=O)Nc2cccc(-c3cccc(NC(=O)c4cc(OC)c(CNCCS(C)(=N)=O)cn4)c3C)c2C)ncc1CNCCS(C)(=N)=O (stereo not drawn) [Example 88, N,N'-(2,2′-dimethyl-[1,1′-biphenyl]-3,3′-diyl)bis(4-methoxy-5-(((2-(S-methylsulfonimidoyl)ethyl)amino)methyl)picolinamide)]	0.41	182
COc1cc(C(=O)Nc2cccc(-c3cccc(NC(=O)c4cc(OC)c(CNCCN=S(C)(C)=O)cn4)c3C)c2C)ncc1CNCCN=S(C)(C)=O [Example 89, N,N'-(2,2′-dimethyl-[1,1′-biphenyl]-3,3′-diyl)bis(5-(((2-((dimethyl(oxo)λ^6-sulfaneylidene)amino)ethyl)amino)methyl)-4-methoxypicolinamide)]	0.87	427
COc1cc(C(=O)Nc2cccc(-c3cccc(NC(=O)c4cc(OC)c(CNCCN=S5(=O)CCCC5)cn4)c3C)c2C)ncc1CNCCN=S1(=O)CCCC1 [Example 90, N,N'-(2,2′-dimethyl-[1,1′-biphenyl]-3,3′-diyl)bis(4-methoxy-5-(((2-((1-oxidotetrahydro-1λ^6-thiophen-1-ylidene)amino)ethyl)amino)methyl)picolinamide)]	0.36	131
Cc1c(NC(=O)c2cc(C3CC3)c(CNCCO)cn2)cccc1-c1cccc(NC(=O)c2cc(C3CC3)c(CNCCO)cn2)c1C [Example 91, N,N'-(2,2′-dimethyl-[1,1′-biphenyl]-3,3′-diyl)bis(4-cyclopropyl-5-(((2-hydroxyethyl)amino)methyl)picolinamide)]	0.16	39
Cc1c(NC(=O)c2cc(C3CC3)c(CNC(CO)CO)cn2)cccc1-c1cccc(NC(=O)c2cc(C3CC3)c(CNC(CO)CO)cn2)c1C [Example 92, N,N′-(2,2′-dimethyl-[1,1′-biphenyl]-3,3′-diyl)bis(4-cyclopropyl-5-(((1,3-dihydroxypropan-2-yl)amino)methyl)picolinamide)]	0.87	54.7
CC(=O)NCCNCc1cnc(C(=O)Nc2cccc(-c3cccc(NC(=O)c4cc(C5CC5)c(CNCCNC(C)=O)cn4)c3C)c2C)cc1C1CC1 [Example 93, N,N'-(2,2′-dimethyl-[1,1′-biphenyl]-3,3′-diyl)bis(5-(((2-acetamidoethyl)amino)methyl)-4-cyclopropylpicolinamide)]	1.49	104
Cc1c(NC(=O)c2cc(C3CC3)c(CNCC3(O)CC3)cn2)cccc1-c1cccc(NC(=O)c2cc(C3CC3)c(CNCC3(O)CC3)cn2)c1C [Example 94, N,N'-(2,2′-dimethyl-[1,1′-biphenyl]-3,3′-diyl)bis(4-cyclopropyl-5-((((1-hydroxycyclopropyl)methyl)amino)methyl)picolinamide)]	4.75	566
Cc1c(NC(=O)c2cc(C3CC3)c(CN[C@H](C)CO)cn2)cccc1-c1cccc(NC(=O)c2cc(C3CC3)c(CN[C@H](C)CO)cn2)c1C [Example 95, N,N'-(2,2′-dimethyl-[1,1′-biphenyl]-3,3′-diyl)bis(4-cyclopropyl-5-((((R)-1-hydroxypropan-2-yl)amino)methyl)picolinamide)]	2.02	125
Cc1c(NC(=O)c2cc(C3CC3)c(CN[C@@H](C)CO)cn2)cccc1-c1cccc(NC(=O)c2cc(C3CC3)c(CN[C@@H](C)CO)cn2)c1C [Example 96, N,N'-(2,2′-dimethyl-[1,1′-biphenyl]-3,3′-diyl)bis(4-cyclopropyl-5-((((S)-1-hydroxypropan-2-yl)amino)methyl)picolinamide)]	1.44	87
Cc1c(NC(=O)c2cc(C3CC3)c(CNC3CCC[C@@H]3O)cn2)cccc1-c1cccc(NC(=O)c2cc(C3CC3)c(CN[C@H]3CCC[C@@H]3O)cn2)c1C (stereo partly drawn) [Example 97]	3.38	221
Cc1c(NC(=O)c2cc(C3CC3)c(CN3CC(O)C3)cn2)cccc1-c1cccc(NC(=O)c2cc(C3CC3)c(CN3CC(O)C3)cn2)c1C [Example 98, N,N′-(2,2′-dimethyl-[1,1′-biphenyl]-3,3′-diyl)bis(4-cyclopropyl-5-((3-hydroxyazetidin-1-yl)methyl)picolinamide)]	3.78	241
Cc1c(NC(=O)c2cc(C3CC3)c(CN3CC(C)(O)C3)cn2)cccc1-c1cccc(NC(=O)c2cc(C3CC3)c(CN3CC(C)(O)C3)cn2)c1C [Example 99, N,N′-(2,2′-dimethyl-[1,1′-biphenyl]-3,3′-diyl)bis(4-cyclopropyl-5-((3-hydroxy-3-methylazetidin-1-yl)methyl)picolinamide)]	1.43	260
